Measured values taken from US9528993B2, “Agents and methods related to screening for resistance to DR5 and reducing resistance to DR5 agonists” (The UAB Research Foundation, priority 2005, dated 2016).
{Fl} = fluorescein label

Experiments:
[1] = test system: human ovarian cancer cell line, UL-3C; test: Cytotoxicity analysis (ATPLITE cell viability), UL-3C; format: cell-based; conditions: for TRA-8-mediated apoptosis of induced resistant cells in presence of chemotherapeutic agent: UL-3C resistant cells, 0.1 μM taxol, 1 μM Adriamycin, 100 μM cisplatin or 5 μM BisVIII
Protocol: (§1) Cells (1,000 cells per well) were seeded into 96-well plate in triplicate with eight concentrations (double serial dilutions from 1000 ng/ml) of TRA-8, 2E12, or TRAIL. Cell viability was determined after overnight culture using ATPLITE assay according to the manufacture's instructions (Packard Instruments, Meriden, Conn.). The results are presented as the precentage of viable cells in treated wells compared to medium control wells.
(§2) Cells (5×10^5/ml) were incubated with a starting dose of 1 ng/ml TRA-8 for two days. Cells were split with fresh medium and incubated with a double dose of TRA-8 every two days until TRA-8 dose reached 2,000 ng/ml. At each treatment cycle, the cell viability of non-induced (parental) and induced cells treated with an inducing dose of TRA-8 was determined by ATPLITE assay.

[2] = test system: caspase activation and PARP cleavage in MDA231 cells; test: Western blot of caspase cascade activation in MDA231 cells; format: cell-based, human; conditions: MDA-231 resistant cells, single agent alone at 4 hours (1,000 ng/ml TRA-8 or 1 μM Adriamycin)
Protocol: Tumor cells (3×10^6) were washed twice with cold PBS and lysed with 300 μl lysis buffer containing 10 mM Tris-HCl (pH 7.6), 150 mM NaCl, 0.5 mM EDTA, 1 mM EGTA, 0.1% SDS, 1 mM sodium orthovanadate, and a mixture of protease inhibitors (1 mM phenylmethylsulfonyl fluoride, 1 μg/ml pepstatin A, 2 μg/ml aprotinin). Lysates were sonicated for 10 seconds, and centrifuged for 20 minutes at 12,000 g. The cell lysates with equal amount of total proteins were boiled for 5 minutes with SDS-PAGE sample buffer. Total cell lysates were separated in 8%, 10%, or 12% SDS-PAGE, and electrophoretically transferred to nitrocellulose membrane. The blots were blocked with 5% nonfat dry milk in TBST buffer (20 mM Tris-HCl (pH 7.4), 500 mM NaCl, and 0.1% Tween 20) and incubated with primary antibody in blocking buffer at 4° C. overnight. The blots were washed three times with TBST and probed with HRP-conjugated secondary antibodies for one hour at room temperature. After washing four times with TBST, the probed proteins were visualized using the ECL Western blotting detection system (Amersham Biosciences, Piscataway, N.J.) according to the manufacturer's instructions.

[3] = test system: human breast cancer cell line, MDA-231; test: Cytotoxicity analysis (ATPLITE cell viability), MDA-231; format: cell-based; conditions: for TRA-8-mediated apoptosis of induced resistant cells in presence of chemotherapeutic agent: MDA-231 resistant cells, 0.1 μM taxol, 1 μM Adriamycin, 100 μM cisplatin or 5 μM BisVIII
Protocol: as §1, §2

Cdk5/p35 = Cdk5/p35 (Homo sapiens, UniProt Q00535); conditions: cited from earlier work
GSK-3 [4] = conditions: cited from earlier work
Cdk1/B = conditions: cited from earlier work
GSK-3 [5] = conditions: cited from earlier work; remark: listed apart in the source
[6] = test system: DDX3 in panel of tumor cells; test: DDX3 expression in panel of tumor cells after DDX3 sRNAi oligo (Western blot); format: cell-based; conditions: 48 hours after transfection
Description: They were then cloned into the BLOCK-iT U6 entry vector. The shRNA is driven by the U6 promoter and can be transiently expressed in most dividing or nondividing mammalian cell types. Resistant cells were transfected with RNAi used LIPOFECTAMINE 2000 (Invitrogen) for the RNAi response. […] Once decreased DDX3 expression was achieved, the siRNA oligo was synthesized (Target sequence: […] (SEQ ID NO:27): Sense RNA 5′-Fl-[…] (Fl-SEQ ID NO:27) (Fl=fluorescein); Anti-senseRNA 5′-[…]-3′ (SEQ ID NO:28), and RNAi control oligo (RI-010-DP) was purchased from Molecula (Columbia, Md.).

panel of tumor cells = test: TRA-8-induced apoptosis in panel of tumor cells after DDX3 sRNAi oligo (ATPLite); format: cell-based; conditions: including some spontaneous resistant cells; various concentrations of TRA-8 overnight
Protocol: as §1, with “Cytotoxicity analysis of tumor cell susceptibility to TRA-8, 2E12, and TRAIL-mediated apoptosis. Cells” for “Cells”, “plates” for “plate”, “an ATPLITE™” for “ATPLITE”, “manufacturer's” for “manufacture's”
They were then cloned into the BLOCK-iT U6 entry vector. The shRNA is driven by the U6 promoter and can be transiently expressed in most dividing or nondividing mammalian cell types. Resistant cells were transfected with RNAi used LIPOFECTAMINE 2000 (Invitrogen) for the RNAi response. The decreased DDX3 expression was determined by Western blot analysis using anti-DDX3 antibody 36 hours after transfection. Once decreased DDX3 expression was achieved, the siRNA oligo was synthesized (Target sequence: […] (SEQ ID NO:27): Sense RNA 5′-Fl-[…] (Fl-SEQ ID NO:27) (Fl=fluorescein); Anti-senseRNA 5′-[…]-3′ (SEQ ID NO:28), and RNAi control oligo (RI-010-DP) was purchased from Molecula (Columbia, Md.).

Chain of Cdk5/p35 (Q00535 whole entry, species assumed): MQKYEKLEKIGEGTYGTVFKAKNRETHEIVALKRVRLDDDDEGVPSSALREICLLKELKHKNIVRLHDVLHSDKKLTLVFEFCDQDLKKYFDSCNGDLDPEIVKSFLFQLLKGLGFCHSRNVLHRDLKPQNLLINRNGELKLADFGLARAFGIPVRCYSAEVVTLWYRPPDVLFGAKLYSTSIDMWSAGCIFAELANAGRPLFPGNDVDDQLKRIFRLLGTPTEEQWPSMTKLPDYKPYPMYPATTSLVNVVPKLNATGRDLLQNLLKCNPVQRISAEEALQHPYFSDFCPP
Chain of Cdk5/p35 (Q15078 whole entry partner, species assumed): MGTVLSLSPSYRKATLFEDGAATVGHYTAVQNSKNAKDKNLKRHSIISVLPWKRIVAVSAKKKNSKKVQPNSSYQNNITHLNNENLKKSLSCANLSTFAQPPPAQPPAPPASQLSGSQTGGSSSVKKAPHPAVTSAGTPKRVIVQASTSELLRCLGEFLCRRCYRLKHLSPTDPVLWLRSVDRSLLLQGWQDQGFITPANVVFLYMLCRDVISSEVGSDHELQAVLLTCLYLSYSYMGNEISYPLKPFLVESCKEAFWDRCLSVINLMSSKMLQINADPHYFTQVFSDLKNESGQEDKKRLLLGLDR

With COc1cccc2c1C(=O)c1c(O)c3c(c(O)c1C2=O)C[C@@](O)(C(=O)CO)C[C@@H]3O[C@H]1C[C@H](N)[C@H](O)[C@H](C)O1 [Adriamycin] the “TRA-8-mediated apoptosis of induced resistant cells in presence of chemotherapeutic agent” value (shortened to “TRA-8-mediated apoptosis”) [1] was “TRA-8 dose-dependent response was restored”, the “activation of caspases 2, 3, 8, 9” value [2] was “did not induce any significant activation” and the “TRA-8-mediated apoptosis” value [3] was “TRA-8 dose-dependent response was restored”.
For CCCCc1c(-c2ccc(OC)cc2)[nH]c2nccnc12 [Aloisine, 7-n-Butyl-6-(4-methoxyphenyl)[5H]pyrrolo[2,3-b]pyrazine], the IC50 (Cdk5/p35) is given as 1500 nM, the IC50 (GSK-3 [4]) is given as 920 nM and the IC50 (Cdk1/B) is given as 700 nM.
For [Be+2] [Beryllium ions], the “inhibition of GSK-3” value (GSK-3 [4]) is listed as “micromolar range”.
For Cn1cc(C2=C(c3cn(CCCN)c4ccccc34)C(=O)NC2=O)c2ccccc21 [Bisindolymaleimide VIII], the “TRA-8-mediated apoptosis” value [1] was “TRA-8 dose-dependent response was restored” and the “TRA-8-mediated apoptosis” value [3] was “TRA-8 dose-dependent response was restored”.
In the case of N.N.[Cl][Pt][Cl] [Cisplatin], the “TRA-8-mediated apoptosis” value [1] is reported as “TRA-8 dose-dependent response was restored” and the “TRA-8-mediated apoptosis” value [3] is reported as “TRA-8 dose-dependent response was restored”.
For CC(C)NCC(O)c1ccc(O)c(O)c1 (stereo not shown) [Isoproterenol], the “decrease of GSK-3 activity” value (GSK-3 [5]) is listed as “approximately 50%”.
For Cn1cc(C2=C(c3ccc(Cl)cc3Cl)C(=O)NC2=O)c2ccccc21 [SB216763], the “inhibition of GSK-3” value (GSK-3 [4]) is listed as “potent”.
With CC(=O)O[C@H]1C(=O)[C@@]2(C)[C@H]([C@H](OC(=O)c3ccccc3)[C@]3(O)C[C@H](OC(=O)[C@H](O)[C@@H](NC(=O)c4ccccc4)c4ccccc4)C(C)=C1C3(C)C)[C@]1(OC(C)=O)CO[C@@H]1C[C@@H]2O [Taxol] the “TRA-8-mediated apoptosis” value [1] was “TRA-8 dose-dependent response was restored” and the “TRA-8-mediated apoptosis” value [3] was “TRA-8 dose-dependent response was restored”.
For “DDX3 RNAi: synthesized siRNA oligo, target sequence GGAGAAATTATCATGGGAAAC (SEQ ID NO:27), antisense SEQ ID NO:28 (sense GGAGAAAUUAUCAUGGGAAAC; antisense GUUUCCCAUGAUAAUUUCUCC; sense: RNA, 5' {Fl}, backbone not given here; antisense: RNA, backbone not given here)”, the “amount of endogenous DDX3” value [6] was “reduced the amount of endogenous DDX3” and the TRA-8-induced apoptosis (panel of tumor cells) was “enhanced the TRA8-induced apoptosis”.
For “TRAIL: Recombinant soluble TRAIL purchased from Alexis Biochemicals”, the “susceptibility of TRA-8 resistant cells to induced apoptosis” value ([1]; UL-3CR cells vs parental) was “still susceptible”, the “susceptibility to apoptosis, in vitro cytotoxicity assay” value ([1]; parental UL-3C cells) was “susceptible to apoptosis” and the “susceptibility of TRA-8 resistant cells to induced apoptosis” value ([3]; MDA-231R cells vs parental) was “still susceptible”. The “susceptibility to apoptosis, in vitro cytotoxicity assay” value ([3]; parental MDA-231 cells) was “susceptible to apoptosis”.
In the case of “insulin: comparator for decrease of GSK-3 activity”, the “decrease of GSK-3 activity” value (GSK-3 [5]) is given as “approximately 50%”.
